# Source: patent US5149702A, “Cycloheptenopyridine derivatives, process for preparation thereof and antiulcer agents containing the same” (Toa Eiyo Ltd., priority 1990, dated 1992)
# Counter-ions that a name gives are not always drawn.
# Key:
# gastric acid secretion = assay: Inhibitory Effect on Gastric Acid Secretion in Ghosh-Schild Rats; format: in vivo, rat (male Wistar-KV); settings: 180 minutes after administration
# Protocol: (a) Inhibitory Effect on Gastric Acid Secretion in Ghosh-Schild Rats Each of male Wistar-KV rats was fasted for 24 hours, and a trachea cannula was set up under urethane anesthesia. The abdomen was incised, a double cannula was set up at the forestomach, and then the abdomen was closed. The gastric acid secretion was stimulated by intravenous infusion of […]. Physiological saline was perfused into the stomach through the double cannula at a rate of 1 ml/min., and the effluent was collected every 10 minutes. The acidity of the effluent was measured, using an automatic titrator, by titrating the effluent with 1/100N sodium hydroxide to pH 7. When the acid secretion had reached a stable plateau, the test drug was intravenously administered, and the gastric acid secretion was measured 3 hours after the test drug administration. The antisecretory effect was expressed as percentages of the secretory amount before administration of the test compound. Inhibition percentages at 180 minutes after the administrations are shown.
# [1] = system: gastric lesion induced by ethanol; assay: Inhibitory Effect on Formation of Gastric Lesion Induced by Ethanol; format: in vivo, rat (male Wistar); settings: P.O., 30 minutes before 1 ml of 99.5% ethanol orally, lesions 1 hour after ethanol
# Protocol: (b) Inhibitory Effect on Formation of Gastric Lesion Induced by Ethanol
# Male Wistar rats weighing 170 to 270 g were used. Each of the rats was placed in separate cages to deprive of food but allowed free access to water for 4 hours. Test drugs or the control drug were orally administered respectively in amounts of 3, 10 and 30 mg/kg, and 30 minutes thereafter 1 ml of 99.5% ethanol were orally administered respectively. One hour after the ethanol administration the rats were sacrificed by cervical vertebrae dislocation, and the stomachs were removed with 8 ml of 1% formalin and put into 1% formalin for 30 minutes to fix the gastric wall. After the fixing, each stomach was opened along the greater curvature, and then after the mucosal surface was washed with tap water, the total length lesions generated at the glandub portion was determined as an ulcer index.
# The antiulcer effect by the test drug was expressed by the ED50 value (the dose of the test compound to inhibit the ulcer by 50% to the ulcer index of the non-treated group). Only the solvent was administered to the non-treated group.
structure (smiles),measurement,setting,value
"COc1ccc2[nH]c([S+]([O-])Cc3ncc(C)c(OC)c3C)nc2c1 (centres unmarked) [Omeprazole, reference compound]","Inhibiting action of gastric acid secretion (rat i.v.), 1 mg/kg",gastric acid secretion,36.9%
"COCCOc1ccnc2c1CCCCC2[S+]([O-])c1nc2ccccc2[nH]1 (centres unmarked) [Example 96, 9-(Benzimidazole-2-yl)sulfinyl-4-(2-methoxyethoxy)-2,3-cycloheptenopyridine]","Inhibiting action of gastric acid secretion (rat i.v.), 1 mg/kg",gastric acid secretion,38.6%
same,"Inhibiting action of gastric acid secretion (rat i.v.), 3 mg/kg",gastric acid secretion,57.4%
"COc1ccnc2c1CCCCC2[S+]([O-])c1nc2ccccc2[nH]1 (centres unmarked) [Example 68, 9-(Benzimidazole-2-yl)sulfinyl-4-methoxy-2,3-cycloheptenopyridine sodium salt]","Inhibiting action of gastric acid secretion (rat i.v.), 1 mg/kg",gastric acid secretion; sodium salt,54.9%
same,ED50 value (dose of the test compound to inhibit the ulcer by 50% to the ulcer index of the non-treated group),"[1]; rat, sodium salt",10.9 mg/kg
"Cc1ccc2[nH]c([S+]([O-])C3CCCCc4cccnc43)nc2c1 (centres unmarked) [Example 75, 9-(5-Methylbenzimidazole-2-yl)sulfinyl-2,3-cycloheptenopyridine]","Inhibiting action of gastric acid secretion (rat i.v.), 3 mg/kg",gastric acid secretion,42.1%
"COc1ccnc2c1CCCCC2[S+]([O-])c1nc2ccccc2[nH]1 (centres unmarked) [Example 77, 9-(Benzimidazole-2-yl)sulfinyl-4-methoxy-2,3-cycloheptenopyridine]","Inhibiting action of gastric acid secretion (rat i.v.), 1 mg/kg",gastric acid secretion,44.7%
same,"Inhibiting action of gastric acid secretion (rat i.v.), 3 mg/kg",gastric acid secretion,74.7%
same,ED50,"[1]; Rattus norvegicus, po, read-out: ED50 value (dose of the test compound to inhibit the ulcer by 50% to the ulcer index of the non-treated group)",13 mg/kg
"COc1ccc2[nH]c([S+]([O-])C3CCCCc4c(OC)ccnc43)nc2c1 (centres unmarked) [Example 63, 9-(5-Methoxybenzimidazole-2-yl)sulfinyl-4-methoxy-2,3-cycloheptenopyridine]","Inhibiting action of gastric acid secretion (rat i.v.), 1 mg/kg",gastric acid secretion,45.7%
same,"Inhibiting action of gastric acid secretion (rat i.v.), 3 mg/kg",gastric acid secretion,73.8%
"COc1c(C)cnc2c1CCCCC2[S+]([O-])c1nc2ccccc2[nH]1 (centres unmarked) [Example 109, 9-(Benzimidazole-2-yl)sulfinyl-4-methoxy-3-methyl-2,3-cycloheptenopyridine]","Inhibiting action of gastric acid secretion (rat i.v.), 3 mg/kg",gastric acid secretion,77.6%
"COc1ccnc2c1CCCCC2[S+]([O-])c1nc2cc(F)ccc2[nH]1 (centres unmarked) [Example 78, 9-(5-Fluorobenzimidazole-2-yl)sulfinyl-4-methoxy-2,3-cycloheptenopyridine]","Inhibiting action of gastric acid secretion (rat i.v.), 1 mg/kg",gastric acid secretion,65.4%
same,"Inhibiting action of gastric acid secretion (rat i.v.), 3 mg/kg",gastric acid secretion,82.9%
